Measurements taken from US20250277012A1 (Protagonist Therapeutics, Inc., priority 2021, published 2025).
Positions of bridges follow the written chain, without caps; N, C: chain ends. Non-standard residues stand in square brackets, D forms with d. Residues, ends and D or L forms follow the SMILES beside them. Groups on a side chain read outwards from the residue. ξ: configuration not given here. *: point of attachment. CH3O(CH2CH2O)11CH2CH2CO = COCCOCCOCCOCCOCCOCCOCCOCCOCCOCCOCCOCCC(=O)*; X13 = COC(=O)CCCCCCCCCCCCCCCCC(=O)NCC[N+](C)(C)CC(=O)*; X1 = C[N+](C)(CCNC(=O)CCCCCCCCCCCCCCCCC(=O)O)CC(=O)*; X5 = CCCCCCCCCCCCCCCC(=O)NCC[N+](C)(C)CC(=O)*; C18 diacid = O=C(O)CCCCCCCCCCCCCCCCC(=O)*; Dip = N[C@H](C(=O)O)C(c1ccccc1)c1ccccc1; ξDip = NC(C(=O)O)C(c1ccccc1)c1ccccc1; Pro(3R-OH) = O=C(O)[C@H]1NCC[C@H]1O; Palmitoyl = CCCCCCCCCCCCCCCC(=O)*; NMeF = CN[C@@H](Cc1ccccc1)C(=O)O; NMeT = CN[C@H](C(=O)O)[C@@H](C)O; NMeE = CN[C@@H](CCC(=O)O)C(=O)O; NMeQ = CN[C@@H](CCC(N)=O)C(=O)O; β3hF = N[C@H](CC(=O)O)Cc1ccccc1; NMeK = CN[C@@H](CCCCN)C(=O)O; αMeP = C[C@@]1(C(=O)O)CCCN1; Isovaleryl = CC(C)CC(=O)*; NMeC = CN[C@@H](CS)C(=O)O; Dap = NC[C@H](N)C(=O)O; AEEA = NCCOCCOCC(=O)O; Ahx = NCCCCCC(=O)O

The compounds below were run against T1, ferroportin (Homo sapiens, UniProt Q9NP59) (assay: T47D cell-based ferroportin internalization assay in presence of mouse serum albumin (MSA)). Conditions: T47D internalization assay in presence of mouse serum albumin (MSA); Table 6E.
T1 sequence (Q9NP59 1-571): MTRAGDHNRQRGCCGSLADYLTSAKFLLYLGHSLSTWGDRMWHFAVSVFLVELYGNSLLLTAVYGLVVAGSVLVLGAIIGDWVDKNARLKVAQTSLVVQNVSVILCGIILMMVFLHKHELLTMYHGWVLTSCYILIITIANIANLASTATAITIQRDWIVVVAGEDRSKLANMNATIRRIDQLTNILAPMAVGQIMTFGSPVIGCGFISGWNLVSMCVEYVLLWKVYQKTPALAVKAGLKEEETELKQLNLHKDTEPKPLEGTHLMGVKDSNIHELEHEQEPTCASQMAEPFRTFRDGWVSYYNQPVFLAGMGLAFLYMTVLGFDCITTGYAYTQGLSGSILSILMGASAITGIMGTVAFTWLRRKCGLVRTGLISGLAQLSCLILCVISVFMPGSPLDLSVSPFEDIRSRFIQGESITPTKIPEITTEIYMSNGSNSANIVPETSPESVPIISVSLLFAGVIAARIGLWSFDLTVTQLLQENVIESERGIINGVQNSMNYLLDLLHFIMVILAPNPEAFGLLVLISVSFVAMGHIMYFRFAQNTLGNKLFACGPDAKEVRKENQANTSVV
Set-up: a human breast carcinoma adherent cell line which endogenously expresses ferroportin; host or cells: T47D
Protocol: The potency of the peptides in causing ferroportin internalization was evaluated in a T47D cell-based assay. […] In this internalization assay, the potency of the test peptides was evaluated in presence of serum albumin which is the main protein component in the blood. T47D cells were maintained in RPMI media (containing required amount of fetal bovine serum) and regularly sub-cultured. In preparation for the assay, the cells were seeded in 96-well plates at a density of 80-100 k cells per well in 100 ul volume and allowed to rest overnight. […] Sigma, A3139). The test peptide dilution series were allowed to incubate at room temperature for 30 min. Then the media was aspirated from the 96-well cell plate and test peptide dilution series were added. […] The AF647-conjugated detection peptide was previously verified to bind to ferroportin and cause its internalization. The cells were washed again after a 2 hr incubation in preparation for flow cytometry analysis. The Median Fluorescence Intensity (MFI) of the AF647-positive population was measured (after removing dead cells and non-singlets from the analysis). The MFI values were used to generate a dose-response curve and obtain IC50 potencies for the test peptides.

| IC50 [µM] | Structure (SMILES) |
| --- | --- |
| 0.01 to 0.1 | CC(C)CC(=O)N[C@@H](CCC(=O)O)C(=O)N[C@H](C(=O)N[C@@H](Cc1c[nH]cn1)C(=O)N[C@H](C(=O)N1CCC[C@H]1C(=O)N[C@H]1CSSC[C@@H](C(=O)N(C)[C@@H](CCCCNC(=O)COCCOCCNC(=O)COCCOCCNC(=O)[C@H](CN)NC(=O)CCCCCCCCCCCCCCCCC(=O)O)C(=O)N(C)[C@@H](Cc2ccccc2)C(=O)N[C@H](CCCCN)C(N)=O)N(C)C1=O)C(c1ccccc1)c1ccccc1)[C@@H](C)O [compound 266] (Isovaleryl-ETH[Dip]PC[NMeC][NMeK]([AEEA-AEEA-Dap-C18 diacid])[NMeF][dK]-NH2; disulfide 6-7) |
| 0.01 to 0.1 | CC(C)CC(=O)N[C@@H](CCC(=O)O)C(=O)N[C@H](C(=O)N[C@@H](Cc1c[nH]cn1)C(=O)N[C@H](C(=O)N1CCC[C@H]1C(=O)N[C@H]1CSSC[C@@H](C(=O)N(C)[C@@H](CCCCNC(=O)COCCOCCNC(=O)COCCOCCNC(=O)[C@H](CN)NC(=O)CCCCCCCCCCCCCCCCC(=O)O)C(=O)N[C@H](CC(=O)N[C@H](CCCCN)C(=O)N(C)[C@@H](CCC(N)=O)C(N)=O)Cc2ccccc2)NC1=O)C(c1ccccc1)c1ccccc1)[C@@H](C)O [compound 251] (Isovaleryl-ETH[Dip]PCC[NMeK]([AEEA-AEEA-Dap-C18 diacid])[β3hF][dK][NMeQ]-NH2; disulfide 6-7) |

Same assay, conditions: Table 6E; T47D internalization assay with MSA

| Structure (SMILES) | IC50 [µM] |
| --- | --- |
| CC(C)CC(=O)NC(CCC(=O)O)C(=O)NC(C(=O)NC(Cc1cnc[nH]1)C(=O)NC(C(=O)N1CCCC1C(=O)NC1CSCc2ccc(cc2)CSCC(C(=O)N(C)C(CCCCNC(=O)COCCOCCNC(=O)COCCOCCNC(=O)C(CN)NC(=O)CCCCCCCCCCCCCCCCC(=O)O)C(=O)NC(CC(=O)NC(CCCCN)C(N)=O)Cc2ccccc2)NC1=O)C(c1ccccc1)c1ccccc1)C(C)O (centres unmarked) [compound 218] | 0.01 to 0.1 |
| COCCOCCOCCOCCOCCOCCOCCOCCOCCOCCOCCOCCC(=O)NCCCC[C@@H](NC(=O)[C@@H](NC(=O)[C@H](CCCCNC(=O)COCCOCCNC(=O)COCCOCCNC(=O)C[N+](C)(C)CCNC(=O)CCCCCCCCCCCCCCCCC(=O)O)NC(=O)[C@@H]1CSSC[C@H](NC(=O)[C@@H]2CCCN2C(=O)[C@@H](NC(=O)[C@H](Cc2c[nH]cn2)NC(=O)[C@@H](NC(=O)[C@H](CCC(=O)O)NC(=O)CC(C)C)[C@@H](C)O)C(c2ccccc2)c2ccccc2)C(=O)N1)C(c1ccccc1)c1ccccc1)C(N)=O [compound 203] (Isovaleryl-ETH[Dip]PCCK([AEEA-AEEA-X1])[Dip][dK](CH3O(CH2CH2O)11CH2CH2CO)-NH2; disulfide 6-7) | 0.01 to 0.1 |
| CC(C)CC(=O)N[C@@H](CCC(=O)O)C(=O)N[C@H](C(=O)N[C@@H](Cc1cnc[nH]1)C(=O)N[C@H](C(=O)N1CCC[C@H]1C(=O)N[C@H]1CSSC[C@@H](C(=O)N(C)[C@@H](CCCCNC(=O)COCCOCCNC(=O)COCCOCCNC(=O)C[N+](C)(C)CCNC(=O)CCCCCCCCCCCCCCCCC(=O)O)C(=O)N[C@H](CC(=O)N[C@H](CCCCN)C(N)=O)Cc2ccccc2)NC1=O)C(c1ccccc1)c1ccccc1)[C@@H](C)O [compound 159] (Isovaleryl-ETH[Dip]PCC[NMeK]([AEEA-AEEA-X1])[β3hF][dK]-NH2; disulfide 6-7) | 0.01 to 0.1 |
| CCCCCCCCCCCCCCCC(=O)NCCCCCC(=O)NCCCC[C@@H](C(=O)N[C@H](C(=O)N[C@H](CCCCN)C(N)=O)C(c1ccccc1)c1ccccc1)N(C)C(=O)[C@@H]1CSSC[C@H](NC(=O)[C@@H]2CCCN2C(=O)[C@@H](NC(=O)[C@H](Cc2cnc[nH]2)NC(=O)[C@@H](NC(=O)[C@H](CCC(=O)O)N(C)C(=O)CC(C)C)[C@@H](C)O)C(c2ccccc2)c2ccccc2)C(=O)N1 [compound 166] (Isovaleryl-[NMeE]TH[Dip]PCC[NMeK]([Ahx-Palmitoyl])[Dip][dK]-NH2; disulfide 6-7) | 0.001 to 0.01 |

Results, then the compound that gave them:

| IC50 [µM] | Structure (SMILES) |
| --- | --- |
| 0.01 to 0.1 | COC(=O)CC[C@H](NC(=O)CC(C)C)C(=O)N[C@H](C(=O)N[C@@H](Cc1c[nH]cn1)C(=O)N[C@H](C(=O)N1CCC[C@H]1C(=O)N[C@H]1CSSC[C@@H](C(=O)N[C@@H](CCCCNC(=O)CCCCCNC(=O)C[N+](C)(C)CCNC(=O)CCCCCCCCCCCCCCCCC(=O)O)C(=O)N[C@H](C(=O)N[C@H](CCCCN)C(N)=O)C(c2ccccc2)c2ccccc2)NC1=O)C(c1ccccc1)c1ccccc1)[C@@H](C)O [compound 211] (Isovaleryl-E(OMe)TH[Dip]PCCK([Ahx-X1])[Dip][dK]-NH2; disulfide 6-7) |
| 0.01 to 0.1 | COC(=O)CCCCCCCCCCCCCCCCC(=O)NCC[N+](C)(C)CC(=O)NCCCCCC(=O)NCCCC[C@H]1C(=O)NC(C(c2ccccc2)c2ccccc2)C(=O)N[C@@H](C(N)=O)CCCCNC(=O)CC[C@H](NC(=O)CC(C)C)C(=O)N[C@@H]([C@@H](C)O)C(=O)N[C@@H](Cc2c[nH]cn2)C(=O)N[C@@H](C(c2ccccc2)c2ccccc2)C(=O)N2CCC[C@H]2C(=O)N[C@H]2CSSC[C@H](NC2=O)C(=O)N1C (some centres unmarked) [compound 160] (Isovaleryl-ETH[Dip]PCC[NMeK]([Ahx-X13])[ξDip][dK]-NH2; lactam 1-10; disulfide 6-7) |
| 0.01 to 0.1 | COC(=O)CC[C@H](NC(=O)CC(C)C)C(=O)N1CCC[C@@]1(C)C(=O)N[C@@H](Cc1c[nH]cn1)C(=O)N[C@H](C(=O)N1CCC[C@H]1C(=O)N[C@H]1CSSC[C@@H](C(=O)N(C)[C@@H](CCCCNC(=O)CCCCCNC(=O)C[N+](C)(C)CCNC(=O)CCCCCCCCCCCCCCCCC(=O)O)C(=O)N[C@H](C(=O)N[C@H](CCCCN)C(N)=O)C(c2ccccc2)c2ccccc2)NC1=O)C(c1ccccc1)c1ccccc1 [compound 145] (Isovaleryl-E(OMe)[αMeP]H[Dip]PCC[NMeK]([Ahx-X1])[Dip][dK]-NH2; disulfide 6-7) |
| 0.001 to 0.01 | CCCCCCCCCCCCCCCC(=O)NCC[N+](C)(C)CC(=O)NCCCCCC(=O)NCCCC[C@@H](C(=O)N[C@H](C(=O)N[C@H](CCCCN)C(N)=O)C(c1ccccc1)c1ccccc1)N(C)C(=O)[C@@H]1CSSC[C@H](NC(=O)[C@@H]2CCCN2C(=O)[C@@H](NC(=O)[C@H](Cc2cnc[nH]2)NC(=O)[C@@H](NC(=O)[C@H](CCC(=O)O)N(C)C(=O)CC(C)C)[C@@H](C)O)C(c2ccccc2)c2ccccc2)C(=O)N1 [compound 167] (Isovaleryl-[NMeE]TH[Dip]PCC[NMeK]([Ahx-X5])[Dip][dK]-NH2; disulfide 6-7) |
| 0.01 to 0.1 | CC(C)CC(=O)N[C@@H](CCC(=O)O)C(=O)N1CC[C@@H](O)[C@H]1C(=O)N[C@@H](Cc1c[nH]cn1)C(=O)N[C@H](C(=O)N1CCC[C@H]1C(=O)N[C@H]1CSSC[C@@H](C(=O)N(C)[C@@H](CCCCNC(=O)CCCCCNC(=O)C[N+](C)(C)CCNC(=O)CCCCCCCCCCCCCCCCC(=O)O)C(=O)N[C@H](C(=O)N(C)[C@@H](CCCCN)C(N)=O)C(c2ccccc2)c2ccccc2)NC1=O)C(c1ccccc1)c1ccccc1 [compound 156] (Isovaleryl-E[Pro(3R-OH)]H[Dip]PCC[NMeK]([Ahx-X1])[Dip][NMeK]-NH2; disulfide 6-7) |
| 0.001 to 0.01 | CCCCCCCCCCCCCCCC(=O)NCCCCCC(=O)NCCCC[C@@H](C(=O)N[C@H](C(=O)N[C@H](CCCCN)C(N)=O)C(c1ccccc1)c1ccccc1)N(C)C(=O)[C@@H]1CSSC[C@H](NC(=O)[C@@H]2CCCN2C(=O)[C@@H](NC(=O)[C@H](Cc2cnc[nH]2)NC(=O)[C@H]([C@@H](C)O)N(C)C(=O)[C@H](CCC(=O)O)NC(=O)CC(C)C)C(c2ccccc2)c2ccccc2)C(=O)N1 [compound 173] (Isovaleryl-E[NMeT]H[Dip]PCC[NMeK]([Ahx-Palmitoyl])[Dip][dK]-NH2; disulfide 6-7) |
| 0.01 to 0.1 | CC(C)CC(=O)N[C@@H](CCC(=O)O)C(=O)N[C@H](C(=O)N[C@@H](Cc1c[nH]cn1)C(=O)N[C@H](C(=O)N1CCC[C@H]1C(=O)N[C@H]1CSSC[C@@H](C(=O)N(C)[C@@H](CCCCNC(=O)COCCOCCNC(=O)COCCOCCNC(=O)C[N+](C)(C)CCNC(=O)CCCCCCCCCCCCCCCCC(=O)O)C(=O)N[C@H](C(=O)N[C@H](CCCCN)C(N)=O)C(c2ccccc2)c2ccccc2)NC1=O)C(c1ccccc1)c1ccccc1)[C@@H](C)O [compound 158] (Isovaleryl-ETH[Dip]PCC[NMeK]([AEEA-AEEA-X1])[Dip][dK]-NH2; disulfide 6-7) |
| 0.1 to 0.5 | CC(C)CC(=O)N[C@@H](CCC(=O)O)C(=O)N(C)[C@H](C(=O)N[C@@H](Cc1c[nH]cn1)C(=O)N[C@H](C(=O)N1CCC[C@H]1C(=O)N[C@H]1CSSC[C@@H](C(=O)N(C)[C@@H](CCCCNC(=O)CCCCCNC(=O)C[N+](C)(C)CCNC(=O)CCCCCCCCCCCCCCCCC(=O)O)C(=O)N[C@H](C(=O)N[C@H](CCCCN)C(N)=O)C(c2ccccc2)c2ccccc2)NC1=O)C(c1ccccc1)c1ccccc1)[C@@H](C)O [compound 190] (Isovaleryl-E[NMeT]H[Dip]PCC[NMeK]([Ahx-X1])[Dip][dK]-NH2; disulfide 6-7) |
